Here are results for four compounds from article PMC10537087, “Evaluating Known Zika Virus NS2B-NS3 Protease Inhibitor Scaffolds via In Silico Screening and Biochemical Assays” (Pharmaceuticals, 2023).

Structures are written as SMILES.

In series [1] the test system is Vero (ATCC CCL-81) cell line. Briefly: Cytotoxicity MTT assay (CC50). The following applies: Vero cells.
Description: (§1) The Vero (ATCC® CCL-81™) cell line was used for the cytotoxicity assays and antiviral activity evaluation against ZIKV. Cells were cultured in Eagle’s minimum essential media (MEM) (Cultilab, Campinas, Brazil). The media was supplemented with 5% fetal bovine serum (FBS) (Cultilab, Brazil), in addition to 100 IU/mL penicillin (Cellofarm, Rio De Janeiro, Brazil), 100 μg/mL streptomycin (Merck, Darmstadt, Germany), and 0.25 μg/mL amphotericin B (Cultilab, Brazil).
(§2) Cells were seeded in 96-well microplates (4.0 × 10^4 cells per well) and incubated at 37 °C and 5% CO2 for 24 h. Then, 200 µL of MEM with 1% FBS containing a serial dilution of the compounds (100 to 12.5 µM) was added. As vehicle control, a serial dilution of DMSO was used. After 72 h of incubation under the same conditions, 100 μL of 3-(4,5-dimethylthiazol-2-yl)-2,5-diphenyltetrazolium bromide (MTT; ThermoFischer Scientific, Waltham, MA, USA) [76] diluted in MEM (0.5 mg/mL) was added to each well and incubated for 3 h. The media was removed, and 100 μL of DMSO was added to each well to solubilize formazan crystals and shaken for 20 min. The absorbance was read at 570 nm using a spectrophotometer (VersaMax, Molecular Devices, San Jose, CA, USA). The percentages of inhibition of cell viability were calculated as the ratio between the absorbance of the compound-treated cells and cells with only the vehicle. […] Linear regression (LR) was used for the analysis, considering results with r^2 > 0.9. All conditions were tested in triplicate and one independent assay (n = 3 data points).
Series [2] in a line: Cytotoxicity MTT assay (CC50). As to conditions: African green monkey, Vero (ATCC CCL-81) cells. (In general: Formazan colour is commonly taken as a measure of viable cells.)
Description: as §1, §2
Another series deals with ZIKV NS2B-NS3pro (Zika virus, UniProt A0A024B7W1, C1582S/C1645S/R1467A/R1531G). Briefly: ZIKV NS2B-NS3pro inhibitory assay with fluorogenic substrate Bz-Nle-Lys-Lys-Arg-AMC. It counts as biochemical. As to conditions: for % ZIKV NS2B/NS3pro Inhibition [Enzyme] = 0.2 nM / % ZIKV NS2B/NS3pro Inhibition [Enzyme] = 2 nM: CHAPS 1 mM; for % ZIKV NS2B/NS3pro Inhibition (100 µM) 0.001% Triton / % ZIKV NS2B/NS3pro Inhibition (100 µM) 0.01% Triton / % ZIKV NS2B/NS3pro Inhibition (100 µM) BSA / % ZIKV NS2B/NS3pro Inhibition (100 µM) With Preincubation / % ZIKV NS2B/NS3pro Inhibition (100 µM) Without Preincubation: compound 100 µM; for % ZIKV NS2B/NS3pro Inhibition (100 µM) 0.001% Triton: 0.001% Triton X-100, no Tween-20; for % ZIKV NS2B/NS3pro Inhibition (100 µM) 0.001% Triton / % ZIKV NS2B/NS3pro Inhibition (100 µM) 0.01% Triton: 10 min preincubation; for % ZIKV NS2B/NS3pro Inhibition (100 µM) 0.01% Triton: 0.01% Triton X-100, no Tween-20; for % ZIKV NS2B/NS3pro Inhibition (100 µM) BSA: 10 min pre-incubation with BSA 1 mg/mL before enzyme; for % ZIKV NS2B/NS3pro Inhibition (100 µM) With Preincubation: 10 min preincubation with enzyme; for % ZIKV NS2B/NS3pro Inhibition (100 µM) With Preincubation / % ZIKV NS2B/NS3pro Inhibition (100 µM) Without Preincubation: 0.005% Tween-20; for % ZIKV NS2B/NS3pro Inhibition [Enzyme] = 0.2 nM / % ZIKV NS2B/NS3pro Inhibition (100 µM) With Preincubation: enzyme 0.2 nM; for % ZIKV NS2B/NS3pro Inhibition (100 µM) Without Preincubation: no preincubation; for Hill Slope Replica 1 / Hill Slope Replica 2: from dose-response curve.

The target in a further series is cruzain (Trypanosoma cruzi, UniProt P25779). Briefly: Cruzain counter-screening enzyme assay (Z-Phe-Arg-AMC). It counts as biochemical. As to conditions: 10 min preincubation, pH 5.5. On the procedure: Cruzain activity was measured by monitoring the fluorescence signal obtained by cleavage of the fluorogenic substrate Z-Phe-Arg-AMC, following a well-established protocol. The fluorescence intensity (excitation λ: 340 nm; emission λ: 440 nm) was monitored for at least 5 min. All assays were performed in sodium acetate 0.1 M at pH 5.5 and β-mercaptoethanol 10 mM. The final protein concentration was 0.1 nM, and the substrate concentration was 2.5 µM. Each condition was tested in triplicate and two independent assays (n = 6 data points), with preincubation of the enzyme for 10 min at 25 °C. Assays were performed at compound concentrations near the IC50 value against ZIKV NS2B-NS3pro.
cruzain, sequence (P25779 123-467): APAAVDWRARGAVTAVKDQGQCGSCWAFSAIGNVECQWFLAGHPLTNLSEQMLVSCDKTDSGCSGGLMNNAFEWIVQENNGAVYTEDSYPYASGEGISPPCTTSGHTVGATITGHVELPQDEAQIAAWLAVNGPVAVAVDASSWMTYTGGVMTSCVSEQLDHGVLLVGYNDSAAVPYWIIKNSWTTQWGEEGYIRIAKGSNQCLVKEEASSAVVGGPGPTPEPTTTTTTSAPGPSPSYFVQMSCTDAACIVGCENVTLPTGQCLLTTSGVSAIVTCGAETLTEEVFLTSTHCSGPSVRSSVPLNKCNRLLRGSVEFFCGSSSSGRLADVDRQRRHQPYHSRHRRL
A general note: A counterscreen serves to expose hits that act by an unwanted route or on another target.

Regarding `O=C(Nc1nc2cccnc2[nH]1)c1ccccc1NS(=O)(=O)c1ccc(Cl)cc1` [Compound 1], the “Cell viability as percentage of cell control (mean absorbance / CELL)” value in series [1] (compound 12.5 µM) is listed as 61.7079. Also, the “Cell viability as percentage of cell control (mean absorbance / CELL)” value in series [1] (compound 50 µM) was 24.3591. In addition, in series [1] (compound 100 µM), the “Cell viability as percentage of cell control (mean absorbance / CELL)” value was 20.1848. The compound also registered a CC50 at 72 h in series [2] of 22 ± 0.79 µM. At ZIKV NS2B-NS3pro (compound 25 µM (close to IC50)), the “% ZIKV NS2B/NS3pro Inhibition [Enzyme] = 0.2 nM” value is listed as 45 ± 0.1% and the “% ZIKV NS2B/NS3pro Inhibition [Enzyme] = 2 nM” value was 26 ± 7%. Also, on ZIKV NS2B-NS3pro, the “% ZIKV NS2B/NS3pro Inhibition (100 µM) 0.001% Triton” value is reported as 93 ± 8%, the “% ZIKV NS2B/NS3pro Inhibition (100 µM) 0.01% Triton” value amounted to 47 ± 34%, the “% ZIKV NS2B/NS3pro Inhibition (100 µM) BSA” value was 69 ± 6% and the “% ZIKV NS2B/NS3pro Inhibition (100 µM) With Preincubation” value is 100 ± 0%. Besides, on ZIKV NS2B-NS3pro, the “% ZIKV NS2B/NS3pro Inhibition (100 µM) Without Preincubation” value is recorded as 100 ± 0%, the “Hill Slope Replica 1” value worked out at 3.046 and the “Hill Slope Replica 2” value is listed as 1.585. Further, the inhibition at 25 µM at cruzain (compound 25 µM) is 97 ± 7%.

Consider `O=C(Nc1nc2cccnc2[nH]1)c1ccccc1NS(=O)(=O)c1ccc(F)cc1` [Compound 2], for which, in series [1] (compound 12.5 µM), the “Cell viability as percentage of cell control (mean absorbance / CELL)” value is on record as 77.4987. Besides, the “Cell viability as percentage of cell control (mean absorbance / CELL)” value in series [1] (compound 25 µM) was found to be 53.4692. The “Cell viability as percentage of cell control (mean absorbance / CELL)” value in series [1] (compound 50 µM) stood at 30.8677. In addition, the “Cell viability as percentage of cell control (mean absorbance / CELL)” value in series [1] (compound 100 µM) was 25.9519. The compound also came in with a cytotoxic concentration (CC50) at 72 h in series [2] of 32.5 ± 1.95 µM. Also, on ZIKV NS2B-NS3pro (compound 25 µM (close to IC50)), the “% ZIKV NS2B/NS3pro Inhibition [Enzyme] = 0.2 nM” value was found to be 30 ± 0.1% and the “% ZIKV NS2B/NS3pro Inhibition [Enzyme] = 2 nM” value is recorded as 28 ± 7%. In addition, on ZIKV NS2B-NS3pro, the “% ZIKV NS2B/NS3pro Inhibition (100 µM) 0.001% Triton” value is 94 ± 7%, the “% ZIKV NS2B/NS3pro Inhibition (100 µM) 0.01% Triton” value is listed as 30 ± 19%, the “% ZIKV NS2B/NS3pro Inhibition (100 µM) BSA” value was found to be 32 ± 2% and the “% ZIKV NS2B/NS3pro Inhibition (100 µM) With Preincubation” value worked out at 100 ± 0%. At ZIKV NS2B-NS3pro, the “% ZIKV NS2B/NS3pro Inhibition (100 µM) Without Preincubation” value came out at 100 ± 0%, the “Hill Slope Replica 1” value turned out to be 0.731 and the “Hill Slope Replica 2” value amounted to 4.089. Also, the inhibition at 25 µM against cruzain (compound 25 µM) was 42 ± 11%.

As to `O=C(Nc1nc2cnccc2[nH]1)c1ccccc1NS(=O)(=O)c1ccc(Cl)cc1` [Compound 4], in series [1] (compound 12.5 µM), the “Cell viability as percentage of cell control (mean absorbance / CELL)” value worked out at 84.584. For the same compound, the “Cell viability as percentage of cell control (mean absorbance / CELL)” value in series [1] (compound 25 µM) came to 66.5687. Besides, in series [1] (compound 50 µM), the “Cell viability as percentage of cell control (mean absorbance / CELL)” value was 49.8167. The “Cell viability as percentage of cell control (mean absorbance / CELL)” value in series [1] (compound 100 µM) is listed as 25.183. Besides, the CC50 at 72 h in series [2] is 57.1 ± 1.86 µM. Also, on ZIKV NS2B-NS3pro (compound 25 µM (close to IC50)), the “% ZIKV NS2B/NS3pro Inhibition [Enzyme] = 0.2 nM” value came to 44 ± 0.2% and the “% ZIKV NS2B/NS3pro Inhibition [Enzyme] = 2 nM” value was 29 ± 8%. For the same compound, on ZIKV NS2B-NS3pro, the “% ZIKV NS2B/NS3pro Inhibition (100 µM) 0.001% Triton” value is on record as 93 ± 8%, the “% ZIKV NS2B/NS3pro Inhibition (100 µM) 0.01% Triton” value was 25 ± 15%, the “% ZIKV NS2B/NS3pro Inhibition (100 µM) BSA” value was found to be 45 ± 4% and the “% ZIKV NS2B/NS3pro Inhibition (100 µM) With Preincubation” value was 100 ± 0%. On ZIKV NS2B-NS3pro, the “% ZIKV NS2B/NS3pro Inhibition (100 µM) Without Preincubation” value came to 100 ± 0%, the “Hill Slope Replica 1” value came out at 0.8047 and the “Hill Slope Replica 2” value is recorded as 0.5347. Besides, on cruzain (compound 25 µM), the “% Cruzain Inhibition” value is on record as “no inhibitory activity” and the inhibition at 25 µM was -12 ± 9.1%.

As for `O=C(Nc1nc2cccc(Cl)c2[nH]1)c1ccccc1NS(=O)(=O)c1ccc(F)cc1` [Compound 5], the “Cell viability as percentage of cell control (mean absorbance / CELL)” value in series [1] (compound 12.5 µM) is given as 44.8735. Besides, the “Cell viability as percentage of cell control (mean absorbance / CELL)” value in series [1] (compound 25 µM) turned out to be 19.4433. For the same compound, the “Cell viability as percentage of cell control (mean absorbance / CELL)” value in series [1] (compound 50 µM) came to 14.9121. Further, the “Cell viability as percentage of cell control (mean absorbance / CELL)” value in series [1] (compound 100 µM) was 15.1318. Besides, the 50% cytotoxic concentration (CC50) at 72 h in series [2] is < 12.5 µM. In addition, on ZIKV NS2B-NS3pro (compound 10 µM (close to IC50)), the “% ZIKV NS2B/NS3pro Inhibition [Enzyme] = 0.2 nM” value was found to be 62 ± 0.1% and the “% ZIKV NS2B/NS3pro Inhibition [Enzyme] = 2 nM” value is given as 23 ± 8%. For the same compound, at ZIKV NS2B-NS3pro, the “% ZIKV NS2B/NS3pro Inhibition (100 µM) 0.001% Triton” value is on record as 93 ± 3%, the “% ZIKV NS2B/NS3pro Inhibition (100 µM) 0.01% Triton” value was 6 ± 8%, the “% ZIKV NS2B/NS3pro Inhibition (100 µM) BSA” value is 94 ± 8% and the “% ZIKV NS2B/NS3pro Inhibition (100 µM) With Preincubation” value came out at 100 ± 0%. For the same compound, at ZIKV NS2B-NS3pro, the “% ZIKV NS2B/NS3pro Inhibition (100 µM) Without Preincubation” value came out at 100 ± 0%, the “Hill Slope Replica 1” value is 3.333 and the “Hill Slope Replica 2” value is 1.731. Besides, the inhibition at 10 µM against cruzain (compound 10 µM) was 69 ± 24%.

A word on the CC50: it is the concentration giving 50% cytotoxicity. By inhibition is commonly meant the change of the read-out against control, counted positive when it falls.
